Key:
[1] = tested on: SOD1^G93A mice; test: Survival study in SOD1 G93A mice (neurological score, survival); type: in vivo, mouse; conditions: for Expected Days, Sulfasalazine: predicted from vehicle cohort if no effect
Method: High-copy SOD1^G93A transgenic mice were derived from the B6SJL-TgN(SOD1G93A)1Gur strain, obtained from The Jackson Laboratory (Bar Harbor, Me.) and originally produced by Gurney, e.g. Gurney et al., Science 264: 1772-1775 (1994). Animal experiments with the SOD1 model were performed at ALS Therapy Development Institute (herein “ALS-TDI”; Cambridge, Mass.). All mice were genotyped to verify copy number of the SOD1 transgene. Animal handling and study protocols were as previously described by ALS-TDI, e.g. Scott et al., Amyotroph. Lateral Scler. 9: 4-15 (2008).
Groups were balanced with respect to gender and body weight within gender. In addition, groups were age-matched and littermate-matched. […] Each cohort of was balanced between males and females.
5 mL of 0.1 N NaOH was added and the tube gently sonicated. Approximately 140 μL of 1 N HCl was then added to bring the pH to 8.00. The resulting 20 mg/mL solution was delivered by intraperitoneal injection at 10 ml/kg. Vehicle treated mice were administered saline.
Neurological scores were assessed daily from day 50 for both hind legs. The neurological score was based on a scale of 0 to 4. Criteria used to assign each score level are from Scott et al., Amyotroph. Lateral Scler. 9: 4-15 (2008) and are described in Table 2.
The date of definitive neurological disease was the day that the mouse first scored a “2” on the Neurological Score. Upon reaching a score of Neurological Score of “4”, mice were euthanized and the date of death was recorded.
Survival after onset of definitive neurological disease is defined as the total number of days the mice lived after reaching definitive neurological disease (Neurological Score of 2) and before death (Neurological Score of 4). Survival after onset of definitive neurological disease was analyzed in two ways.
The first day that a neurological score was determined was day 50 of age; measurements were collected daily afterwards until death.
The three categories were: (1) days spent before definitive neurological disease, e.g. with a neurological score of 0 or 1; (2) days spent during definitive neurological disease, e.g. with a neurological score of 2 or 3; and (3) days at death, e.g. with a neurological score of 4. By definition, mice were only in the dead state for 1 day, as they were euthanized upon reaching a neurological score of 4; this category was included as a positive control to ensure the integrity of the data and analysis.

[2] = in vivo; conditions: SOD1, mouse, spinal cord/plasma, ip, 200 mg/kg
[3] = sulfasalazine vs vehicle, SOD1 mice, 200 mg/kg IP two times per day

Compound: O=C(O)c1cc(/N=N/c2ccc(S(=O)(=O)Nc3ccccn3)cc2)ccc1O [Sulfasalazine, 2-hydroxy-5-[(E)-2-{4-[(pyridin-2-yl)sulfamoyl]phenyl}diazen-1-yl]benzoic acid]
- increase of median absolute survival ([1]; SOD1 mice vs vehicle, 200 mg/kg IP two times per day, p=0.07): 3.5 days
- effect on time of disease onset ([1]; SOD1 mice, 200 mg/kg IP two times per day): no statistical effect
- Expected Days, Sulfasalazine ([1]; Total Observations): 2050 days
- Observed Days Minus Expected Days ([1]; before definitive disease onset (neurological score 0 or 1)): no significant difference
- Observed Days Minus Expected Days ([1]; death (neurological score 4)): no significant difference
- Observed Days, Sulfasalazine ([1]; death (neurological score 4), cohort n=27): 27 days
- Expected Days, Sulfasalazine ([1]; death (neurological score 4)): 27 days
- Absolute Change in Mean Day of Death [1, 3]: 3.7 days
- Absolute Change in Mean Day of Definitive Neurological Disease [1, 3]: −1.2 day
- Absolute Change in Total Days of Survival after Onset of Definitive Disease [1, 3]: 4.9 days
- Percent Change in Mean Day of Death [1, 3]: 2.9%
- Percent Change in Mean Day of Definitive Neurological Disease [1, 3]: −1.0%
- Percent Change in Total Days of Survival after Onset of Definitive Disease (increased lifespan after onset) ([1]; sulfasalazine vs vehicle, SOD1 mice, 200 mg/kg IP two times per day, 200 mg/kg): 39%
- Expected Days, Sulfasalazine ([1]; total days before definitive disease onset (neurological score 0 or 1), normalized for number of animals): 1722 days
- Expected Days, Sulfasalazine ([1]; total days in definitive neurological disease (neurological score 2 or 3)): 301 days
- Kp at 15 min [2]: 0.16
